Entries after “also recorded” stand apart in the source; their conditions may differ. Like-named read-outs stand apart in the source and are kept apart here. Where no end group is shown, it is not given here. [ ]: non-standard residue; d: D form.
Legend:
[1] = test system: CD4+/CD45RAlow/CD62Lhigh central memory T-cells; type: cell-based, human; conditions: for memory T-cell recall response, influenza epitopes: 5 PBMC donors, FIG. 12; for memory T-cell recall response, influenza epitopes / potency of recall response (activated central memory T-cells, CD4+/CD45RAmedium/CD62Lhigh/IFN-γ+) / memory T-cell recall response of individual peptides and heterodimeric peptides lacking a cathepsin cleavage site compared with this peptide: 4 μM peptide; for potency of recall response (activated central memory T-cells, CD4+/CD45RAmedium/CD62Lhigh/IFN-γ+): human PBMC, 20 donors, FIG. 2; for memory T-cell recall response of individual peptides and heterodimeric peptides lacking a cathepsin cleavage site compared with this peptide: 4 donors, the comparators gave the weaker response, the labelled kvsvr peptides the stronger
[2] = test system: CD4+/CD45RAlow/CD62Lhigh central memory T-cells; assay: Dendritic cell/CD4 T-cell co-culture, multi-color intracellular cytokine analysis; type: cell-based, human; conditions: for expression of IL-4 in peptide activated memory T-cells / expression of TNF-α and IFN-γ in peptide activated memory T-cells: DC/CD4 T-cell co-culture with peptide, FIGS. 4, 5; for co-expression of TNF-α and IFN-γ / co-expression of TNF-α and IL-4: multiple color flow cytometry, FIG. 6
Experimental: Early central memory-cells express multiple cytokines (IL-2, TNF-α, IFN-γ) when re-activated with specific peptides, whereas committed effector memory T-cells are thought to selectively express IL-4 for TH2 committed effector memory, and IFN-γ for TH1 committed effector memory. The status of peptide activated memory T-cells was tested using multi-color intracellular cytokine analysis of dendritic cell/CD4 cell co-cultures.
Human peripheral blood monocytes were isolated using negative-selection magnetic beads (Dynal) and cultured in the presence of GM-CSF and IL-4 for 1 week in order to induce differentiation into dendritic cells. Allogeneic CD4 T cells were isolated using magnetic bead separation (Dynal) and co-cultured in the presence of DCs in the presence or absence of peptide. The protocol for stimulation and analysis from that point is identical to that for PBMC described above in Example 2.

CSQRSKFLLMDALKLkvsvrLIFLARSALILR [AAWkAAT]
memory T-cell recall response, influenza epitopes [1]: positive

ILMQYIKANSKFIGI QSIALSSLMVAQTLLYVLFEV (ILMQYIKANSKFIGIQSIALSSLMVAQTLLYVLFEV) [TT830DTAdV]
memory T-cell recall response [1]: recall response in all 4 donors

ILMQYIKANSKFIGIPMGLPQSIALSSLMVAQ [TT830pDTt]
potency of recall response (activated central memory T-cells, CD4+/CD45RAmedium/CD62Lhigh/IFN-γ+) ([1]; listed as TT830 pmglpDTt): highest response; also recorded: more active than its individual components (TT830 and DT) alone
number (out of 20) donors positive for memory T-cells responding to peptide ([1]; positive if greater than 0.08% responding central memory T-cells in the CD4+CD45RAlow population, FIG. 3): 20/20
expression of IL-4 in peptide activated memory T-cells [2]: not IL-4
expression of TNF-α and IFN-γ in peptide activated memory T-cells [2]: increased expression
co-expression of TNF-α and IFN-γ [2]: peptide induced co-expression
co-expression of TNF-α and IL-4 [2]: not co-expression

ILMQYIKANSKFIGIQSIALSSLMVAQ [TT830DTt]
co-expression of TNF-α and IFN-γ [2]: peptide induced co-expression
co-expression of TNF-α and IL-4 [2]: not co-expression

ILMQYIKANSKFIGIQSIALSSLMVAQAIPLVGEL [TT830DT]
expression of IL-4 in peptide activated memory T-cells [2]: not IL-4
expression of TNF-α and IFN-γ in peptide activated memory T-cells [2]: increased expression

ILSIYSTVASSLALAIkvsvrLIFLARSALILR [ABW2kAAT]
memory T-cell recall response, influenza epitopes [1]: positive

LIFLARSALILRkvsvrILSIYSTVASSLALAI [AATkABW2]
memory T-cell recall response, influenza epitopes [1]: positive

NAELLVALENQHTIkvsvrLIFLARSALILR (NAELLVALENQHTIKVSVRLIFLARSALILR) [3120tkAAT]
memory T-cell recall response, influenza epitopes [1]: positive

TLLYVLFEVPMGLPILMQYIKANSKFIGI [AdVpTT830]
potency of recall response (activated central memory T-cells, CD4+/CD45RAmedium/CD62Lhigh/IFN-γ+) [1]: eliminated activity of the AdV epitope

TLLYVLFEVkvsvr NNFTVSFWLRVPKVSASHLET (TLLYVLFEV[dK][dV][dS][dV][dR]NNFTVSFWLRVPKVSASHLET) [AdVkTT950]
memory T-cell recall response of individual peptides and heterodimeric peptides lacking a cathepsin cleavage site compared with this peptide [1]: weaker response as compared to the donor response to heterotrimeric peptides

TLLYVLFEVkvsvrQSIALSSLMVAQ (TLLYVLFEV[dK][dV][dS][dV][dR]QSIALSSLMVAQ) [AdVkDTt]
memory T-cell recall response of individual peptides and heterodimeric peptides lacking a cathepsin cleavage site compared with this peptide [1]: weaker response as compared to the donor response to heterotrimeric peptides
